# In patent US12060349B2, “Glucosylceramide synthase inhibitors” (Genzyme Corporation, priority 2012, dated 2024):
# Where two headings read alike, the source gives them in different places.
# Key:
# [1] = test system: GM3 expression on the cell surface, C32 human melanoma cells; assay: cell based phenotypic assay, cell surface GM3 by antibody mediated immunofluorescence, C32 (GM3 C32 IC50); conditions: 50% inhibition of GM3 expression on the cell surface
# In short: (§1)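 B16 mouse and C32 human melanoma cells; cell-surface GM3 measured by antibody-mediated immunofluorescence, giving IC50.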
# C32 human melanoma cells = assay: cell viability in the C32 cell-based assay (Viability, C32 IC50); conditions: concentration causing 50% cell death, values greater than 10 represent a lack of cell death
# In short: (§2)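 Viability readouts were run alongside the GM3 cell-surface assay in the same B16 and C32 cultures. A figure above 10 indicates no cell death.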
# [2] = target: T1, glucosylceramide synthase (Homo sapiens, UniProt Q16739); assay: microsomal assay measuring conversion of ceramide to glucosylceramide by HPLC (GCS IC50); type: biochemical; conditions: concentration causing 50% inhibition of glucosylceramide synthase activity
# T1 construct: Microsomes were isolated from A375 human melanoma cells; endogenous in cells; host or cells: A375 human melanoma cells (microsomal fraction, 100,000 g pellet)
# T1 sequence (Q16739 1-394): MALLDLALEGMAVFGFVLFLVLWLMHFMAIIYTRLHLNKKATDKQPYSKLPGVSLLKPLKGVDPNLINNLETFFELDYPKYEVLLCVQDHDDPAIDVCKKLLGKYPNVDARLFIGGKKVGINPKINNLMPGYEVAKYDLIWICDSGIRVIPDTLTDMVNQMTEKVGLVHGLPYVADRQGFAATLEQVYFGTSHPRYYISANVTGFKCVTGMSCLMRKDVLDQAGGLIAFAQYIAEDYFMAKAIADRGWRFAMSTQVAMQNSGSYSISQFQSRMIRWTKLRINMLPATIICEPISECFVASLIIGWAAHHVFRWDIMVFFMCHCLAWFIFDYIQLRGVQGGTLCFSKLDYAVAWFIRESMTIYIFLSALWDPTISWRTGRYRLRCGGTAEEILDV
# In short: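 IC50 is the compound concentration halving glucosylceramide synthase activity. Activity was measured in microsomes, with HPLC quantifying glucosylceramide formed from ceramide.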
# B16 mouse melanoma cells = assay: cell viability in the B16 cell-based assay (Viability, B16 IC50)
# In short: as §2
# [3] = test system: GM3 expression on the cell surface, B16 mouse melanoma cells; assay: cell based phenotypic assay, cell surface GM3 by antibody mediated immunofluorescence, B16 (GM3 B16 IC50); conditions: 50% inhibition of GM3 expression on the cell surface
# In short: as §1
# [4] = Homo sapiens, C32 human melanoma cells, read-out: GM3 C32 IC50
# [5] = Homo sapiens, C32, C32 cells, read-out: Viability, C32 IC50
# [6] = Mus musculus, B16, B16 cells, concentration causing 50% cell death, values greater than 10 represent a lack of cell death, read-out: Viability, B16 IC50
# [7] = Mus musculus, B16 mouse melanoma cells, read-out: GM3 B16 IC50
# [8] = Homo sapiens, read-out: GM3 C32 IC50, C32 human melanoma cells
# [9] = Homo sapiens, C32, read-out: Viability, C32 IC50, C32 cells
# [10] = Mus musculus, B16, read-out: Viability, B16 IC50
# [11] = Mus musculus, read-out: GM3 B16 IC50, B16 mouse melanoma cells
# [12] = C32 human melanoma cells, read-out: GM3 C32 IC50
# [13] = C32 cells, read-out: Viability, C32 IC50
# [14] = B16 cells, concentration causing 50% cell death, values greater than 10 represent a lack of cell death, read-out: Viability, B16 IC50
# [15] = B16 mouse melanoma cells, read-out: GM3 B16 IC50
"IC50 [1, 4] [µM]","IC50 [3, 7] [µM]",Molecule,IC50 (C32 human melanoma cells; [5]) [µM],IC50 [2] [µM],IC50 (B16 mouse melanoma cells; [6]) [µM],"IC50 [1, 8] [µM]",IC50 (C32 human melanoma cells; [9]) [µM],IC50 (B16 mouse melanoma cells; [10]) [µM],"IC50 [3, 11] [µM]","IC50 [1, 12] [µM]",IC50 (C32 human melanoma cells; [13]) [µM],IC50 (B16 mouse melanoma cells; [14]) [µM],"IC50 [3, 15] [µM]"
0.00719,0.0904,"COCCCOc1ccc(-c2nc(C(C)(C)NC(=O)OC3CCN4CCC3CC4)cs2)cc1 (stereo not shown) [Example 341, 1-Azabicyclo[3.2.2]nonan-4-yl (2-(2-(4-(3-methoxypropoxy)phenyl)thiazol-4-yl)propan-2-yl)carbamate]",≥ 10,0.0193,≥ 10,–,–,–,–,–,–,–,–
0.0851,0.393,"COCCCOc1ccc(-c2nc(C(C)(C)NC(=O)N3CCN4CCC3CC4)cs2)cc1 [Example 342, N-(2-(2-(4-(3-Methoxypropoxy)phenyl)thiazol-4-yl)propan-2-yl)-1,4-diazabicyclo[3.2.2]nonane-4-carboxamide]",≥ 10,0.666,≥ 10,–,–,–,–,–,–,–,–
–,–,"COCCOc1ccc(-c2nc(C(C)(C)NC(=O)OC3CN4CCC3CC4)cs2)cc1 (stereo not shown) [Example 343, Quinuclidin-3-yl (2-(2-(4-(2-methoxyethoxy)phenyl)thiazol-4-yl)propan-2-yl)carbamate]",–,0.36,–,0.0198,1,≥ 10,0.106,–,–,–,–
0.00876,0.0564,"COCCOc1ccc(-c2nc(C(C)(C)NC(=O)OC3CCN4CCC3CC4)cs2)cc1 (stereo not shown) [Example 344, 1-Azabicyclo[3.2.2]nonan-4-yl (2-(2-(4-(2-methoxyethoxy)phenyl)thiazol-4-yl)propan-2-yl)carbamate]",1,0.0658,≥ 10,–,–,–,–,–,–,–,–
0.091,0.369,"COCCOc1ccc(-c2nc(C(C)(C)NC(=O)N3CCN4CCC3CC4)cs2)cc1 [Example 345, N-(2-(2-(4-(2-Methoxyethoxy)phenyl)thiazol-4-yl)propan-2-yl)-1,4-diazabicyclo[3.2.2]nonane-4-carboxamide]",3.16,2.54,≥ 10,–,–,–,–,–,–,–,–
–,–,"COCCOc1ccc(-c2ccc(C(C)(C)NC(=O)OC3CN4CCC3CC4)nc2)cc1 (stereo not shown) [Example 346, Quinuclidin-3-yl 2-(5-(4-(2-methoxyethoxy)phenyl)pyridin-2-yl)propan-2-ylcarbamate]",–,0.0507,–,0.0111,3.16,≥ 10,0.266,–,–,–,–
0.00582,0.15,"COCCOc1ccc(-c2ccc(C(C)(C)NC(=O)OC3CCN4CCC3CC4)nc2)cc1 (stereo not shown) [Example 347, 1-Azabicyclo[3.2.2]nonan-4-yl 2-(5-(4-(2-methoxyethoxy)phenyl)pyridin-2-yl)propan-2-ylcarbamate]",1.41,0.0368,≥ 10,–,–,–,–,–,–,–,–
–,–,"N-(2-(4-(4-(Methylcarbamoyl)phenoxy)phenyl)propan-2-yl)-1,4-diazabicyclo[3.2.2]nonane-4-carboxamide [Example 305]",–,0.399,–,–,–,–,–,0.0195,1,≥ 10,0.299
–,–,N-(4-Methyl-1-azabicyclo[3.2.2]nonan-4-yl)-4-(3-(pyrimidin-5-yl)phenyl)piperazine-1-carboxamide [Example 27],–,16.5,–,–,–,–,–,0.798,≥ 10,≥ 10,> 10
–,–,"Quinuclidin-3-yl (2-(4′-(2-methoxyethoxy)-[1,1′-biphenyl]-3-yl)propan-2-yl)carbamate [Example 175]",–,0.0025,–,–,–,–,–,0.00187,9,≥ 10,0.0713
–,–,"Quinuclidin-3-yl (2-(4′-((2-methoxyethoxy)methyl)-[1,1′-biphenyl]-3-yl)propan-2-yl)carbamate [Example 203]",–,0.0296,–,–,–,–,–,0.00653,1.78,≥ 10,0.0963
